The test system of test [1] is Human promyelocytic leukemia (HL60) cells. Put plainly: HL-60 differentiation (nitro blue tetrazolium reduction). It is filed as cell-based. To be noted: for EC50: HL60 cells, four days of treatment, read-out: EC50, ability to promote HL60 differentiation; for potency on HL-60 cell differentiation compared to 1,25(OH)2D3, in words: HL-60 cells. Here is the method: Serial dilutions were prepared so that a range of drug concentrations could be tested without changing the final concentration of ethanol (≦0.2%) present in the cell cultures.
Human promyelocytic leukemia (HL60) cells were grown in RPMI-1640 medium containing 10% fetal bovine serum. The cells were incubated at 37° C. in the presence of 5% CO2.
HL60 cells were plated at 1.2×10^5 cells/ml. Eighteen hours after plating, cells in duplicate were treated with drug. Four days later, the cells were harvested and a nitro blue tetrazolium reduction assay was performed (Collins et al., 1979; J. Exp. Med. 149:969-974). The percentage of differentiated cells was determined by counting a total of 200 cells and recording the number that contained intracellular black-blue formazan deposits. Verification of differentiation to monocytic cells was determined by measuring phagocytic activity (data not shown).

The nature of test [2]: Bone calcium mobilization (serum calcium) in vitamin D-deficient rats. Particulars: for bone calcium mobilization activity (serum calcium), in words: dosages tested; for bone calcium mobilization activity (serum calcium), in words / mobilization of bone calcium at 780 pmol/day: 0.02% Ca diet; for mobilization of bone calcium at 780 pmol/day: 780 pmol/day for 4 consecutive days; for potency relative to the native hormone in releasing bone calcium stores: low calcium diet (0.02%), four consecutive ip doses. The test is classed as in vivo, rat. As for the experimental part:
(§1) Male, weanling Sprague-Dawley rats were placed on Diet 11 (Suda et al, J. Nutr. 100:1049, 1970) (0.47% Ca)+vitamins AEK for one week followed by Diet 11 (0.02% Ca)+vitamins AEK for 3 weeks. The rats were then switched to the same diet containing 0.47% Ca for one week followed by two weeks on the same diet containing 0.02% Ca. Dose administration began during the last week on 0.02% calcium diet. Four consecutive ip doses were given approximately 24 hours apart. Twenty-four hours after the last dose, blood was collected from the severed neck and the concentration of serum calcium determined by atomic absorption spectrometry as a measure of bone calcium mobilization. The first 10 cm of the intestine was also collected for intestinal calcium transport analysis using the everted gut sac method.

Test [3] deals with 24-hydroxylase (24Ohase) gene promoter. Put plainly: In vitro transcription assay, luciferase reporter in ROS 17/2.8 (bone) cells. It is filed as cell-based. Particulars: for EC50: ROS 17/2.8 cells, 24-hydroxylase promoter-luciferase, sixteen hours after dosing, read-out: EC50, transcriptional activity in bone cells; for potency relative to 1,25(OH)2D3 in increasing transcription of the 24-hydroxylase gene: bone cells, fold more potent than 1,25(OH)2D3. Here is the method:
Transcription activity was measured in ROS 17/2.8 (bone) cells that were stably transfected with a 24-hydroxylase (24Ohase) gene promoter upstream of a luciferase reporter gene (Arbour et al., 1998). Cells were given a range of doses. Sixteen hours after dosing the cells were harvested and luciferase activities were measured using a luminometer. RLU=relative luciferase units.

Test [4] deals with T1, full-length recombinant rat vitamin D receptor (Rattus norvegicus, UniProt P13053).
T1 sequence (P13053 1-423): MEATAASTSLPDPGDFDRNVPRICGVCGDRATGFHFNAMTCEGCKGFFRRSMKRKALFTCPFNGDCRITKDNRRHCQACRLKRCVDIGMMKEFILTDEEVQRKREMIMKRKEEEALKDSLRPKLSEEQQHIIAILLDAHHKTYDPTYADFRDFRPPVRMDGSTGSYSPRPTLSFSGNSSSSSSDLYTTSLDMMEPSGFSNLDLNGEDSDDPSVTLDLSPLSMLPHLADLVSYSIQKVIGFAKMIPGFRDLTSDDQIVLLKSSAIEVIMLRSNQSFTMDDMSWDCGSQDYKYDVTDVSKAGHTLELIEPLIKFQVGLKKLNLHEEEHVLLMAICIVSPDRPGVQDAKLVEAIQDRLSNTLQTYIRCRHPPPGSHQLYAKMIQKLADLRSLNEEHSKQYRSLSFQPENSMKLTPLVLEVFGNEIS
The test is described as follows: biochemical.
Experimental: (§2) Full-length recombinant rat receptor was expressed in E. coli BL21 (DE3) Codon Plus RIL cells and purified to homogeneity using two different column chromatography systems. The first system was a nickel affinity resin that utilizes the C-terminal histidine tag on this protein. The protein that was eluted from this resin was further purified using ion exchange chromatography (S-Sepharose Fast Flow). Aliquots of the purified protein were quick frozen in liquid nitrogen and stored at −80° C. until use. For use in binding assays, the protein was diluted in TEDK50 (50 mM Tris, 1.5 mM EDTA, pH7.4, 5 mM DTT, 150 mM KCl) with 0.1% Chaps detergent. The receptor protein and ligand concentration was optimized such that no more than 20% of the added radiolabeled ligand was bound to the receptor.
(§3) Radiolabeled and unlabeled ligands were added to 100 mcl of the diluted protein at a final ethanol concentration of ≦10%, mixed and incubated overnight on ice to reach binding equilibrium. The following day, 100 mcl of hydroxylapatite slurry (50%) was added to each tube and mixed at 10-minute intervals for 30 minutes. The hydroxylapaptite was collected by centrifugation and then washed three times with Tris-EDTA buffer (50 mM Tris, 1.5 mM EDTA, pH 7.4) containing 0.5% Titron X-100. After the final wash, the pellets were transferred to scintillation vials containing 4 ml of Biosafe II scintillation cocktail, mixed and placed in a scintillation counter. Total binding was determined from the tubes containing only radiolabeled ligand.

The target of test [5] is T1, full-length recombinant rat vitamin D receptor.
Experimental: as §2, §3
Test [6] in a line: Intestinal calcium transport, everted gut sac method, in vitamin D-deficient rats. Particulars: compared to 1,25(OH)2D3. It is filed as in vivo, rat. As for the experimental part:
as §1

Entries after “also recorded” stand apart in the source; their conditions may differ. Read-outs that look alike come from different tables or passages of the source.

For the compound `C=C1/C(=C\C=C2/CCC[C@]3(C)[C@@H]([C@H](C)CCCC(C)(C)O)CC[C@@H]23)C[C@@H](O)C[C@@H]1O` [1α,25-dihydroxyvitamin D3, reference compound], the concentration giving a half-maximal response (EC50) in test [1] was 3 nM; in test [3], 0.2 nM. In addition, the “bone calcium mobilization activity (serum calcium), in words” value (from here on “bone calcium mobilization activity”) in test [2] is listed as “increased serum calcium levels”.

With `C=C1/C(=C\C=C2/CCC[C@]3(C)[C@@H]([C@H](C)CCCC(C)(C)O)CC[C@@H]23)C[C@@H](O)C(=C)[C@@H]1O` [2EG-R, (20R)-1α,25-dihydroxy-2-methylene-vitamin D3], the EC50 in test [1] (Homo sapiens, HL-60, 96 h) turned out to be 7 nM. Also, in test [2], the “mobilization of bone calcium at 780 pmol/day” value is on record as “significant mobilization of bone calcium”; the “bone calcium mobilization activity” value is listed as “more potent than the native hormone”; the “potency relative to the native hormone in releasing bone calcium stores” value is recorded as “at least 10 times”. Moreover, in test [3], the EC50 is 0.03 nM and the “potency relative to 1,25(OH)2D3 in increasing transcription of the 24-hydroxylase gene” value was “about 10 times”. Further, the Ki in test [4] came to 0.06 nM. Also, the “binding affinity to the receptor compared to the standard 1,25-(OH)2D3, in words” value in test [5] is on record as “about the same affinity”. Besides, the “intestinal calcium transport activity, in words” value in test [6] is “more potent than 1,25(OH)2D3; also recorded: very significant activity”.

Take `C=C1/C(=C\C=C2/CCC[C@]3(C)[C@@H]([C@@H](C)CCCC(C)(C)O)CC[C@@H]23)C[C@@H](O)C(=C)[C@@H]1O` [2EG-S, (20S)-1α,25-dihydroxy-2-methylene-vitamin D3]: the “potency on HL-60 cell differentiation compared to 1,25(OH)2D3, in words” value in test [1] is recorded as “more potent than 1,25(OH)2D3”. The EC50 in test [1] (Homo sapiens, HL-60, 96 h) amounted to 0.06 nM. In test [2], the “mobilization of bone calcium at 780 pmol/day” value was “significant mobilization of bone calcium”; the “bone calcium mobilization activity” value is recorded as “more potent than the native hormone”; the “potency relative to the native hormone in releasing bone calcium stores” value is recorded as “at least 10 times”. In test [3], the EC50 was 0.005 nM and the “potency relative to 1,25(OH)2D3 in increasing transcription of the 24-hydroxylase gene” value was “about 40 times”. Also, the inhibition constant (Ki) in test [4] worked out at 0.1 nM. The “binding affinity to the receptor compared to the standard 1,25-(OH)2D3, in words” value in test [5] is on record as “about the same affinity”. Further, the “intestinal calcium transport activity, in words” value in test [6] was “more potent than 1,25(OH)2D3; also recorded: very significant activity”.

Consider `C=C1/C(=C/C=C2\CCC[C@]3(C)[C@@H]([C@@H](C)CCCC(C)(C)O)CC[C@@H]23)C[C@@H](O)C(=C)[C@@H]1O` [T-2EG-S, (5E)-(20S)-1α,25-dihydroxy-2-methylene-vitamin D3], for which the “potency on HL-60 cell differentiation compared to 1,25(OH)2D3, in words” value in test [1] is “more potent than 1,25(OH)2D3”. The EC50 in test [1] (Homo sapiens, HL-60, 96 h) was 0.3 nM. Further, in test [2], the “mobilization of bone calcium at 780 pmol/day” value was “significant mobilization of bone calcium”; the “bone calcium mobilization activity” value was “more potent than the native hormone”; the “potency relative to the native hormone in releasing bone calcium stores” value was “at least 10 times”. In addition, the “potency relative to 1,25(OH)2D3 in increasing transcription of the 24-hydroxylase gene” value in test [3] is “about 10 times”. Also, the Ki in test [4] is 0.1 nM. In test [5], the “binding affinity to the receptor compared to the standard 1,25-(OH)2D3, in words” value was “about the same affinity”. In test [6], the “intestinal calcium transport activity, in words” value is “about the same potency as 1,25(OH)2D3; also recorded: very significant activity”.

In general, EC50 refers to the concentration giving half of the maximal effect. One may read the Ki as a measure of affinity in units of concentration, obtained from inhibition or displacement.

Values taken from patent US8410080B1, “2-methylene-vitamin D analogs and their uses” (Wisconsin Alumni Research Foundation, priority 2011, dated 2013).
